Measured values from US10188693B2, “Methods for treatment of atherosclerosis” (Stealth BioTherapeutics Corp, priority 2012, dated 2019).
“And” between values parts separate entries of the source, which are not always exact repeats. Identical values can stand only once. “Also recorded” adds a separate entry of the source.

How the values were obtained:
Human skin fibroblasts = assay: Coenzyme Q10 levels in fibroblasts treated with peptide; format: cell-based; conditions: 10 nM peptide, 16-24 hours or 5 days, versus saline treated fibroblasts; listed as aromatic-cationic peptide
Method: Fibroblasts were treated with an aromatic-cationic peptide of the present disclosure, and levels of coenzyme Q10 were evaluated.
Human skin fibroblasts from normal subjects were incubated under standard tissue culture medium containing high glucose levels to support anaerobic conditions. At approximately 90% confluence, cells were incubated in the presence of 10 nM D-Arg-2′6′-Dmt-Lys-Phe-NH2 for a period of either one day (24 h) or five days as shown in Table 11 below. The culture medium was not changed during the incubation period. Cells were harvested and the cellular level of CoQ was determined using methods known in the art. Data represents the average n=3-6.

[1] = tested on: Apoprotein E deficient mice; assay: Thoracic aorta lipids (Bligh-Dyer extraction, WAKO kits; TC, FC, CE per mg protein); format: in vivo; conditions: 12 weeks
Excerpt: (§1) Apoprotein E deficient mice (Jackson Laboratories, 600 Main Street, Bar Harbor, Me.) were used in this study. The mice were male, 7-8 weeks of age, and between 18-20 g in weight. An initial total cholesterol measurement was made on 30 mice, and the mice were grouped into two groups of 15 to match the total cholesterol measurements. Both groups were fed a “western diet” (40 kcal % butterfat, 0.15% [wt/wt] cholesterol, Harlan Teklad diet TD-88137). Starting at t=0, the control group of 15 mice received vehicle only (phosphate buffered saline at pH 7.4), while the test group of 15 mice received aromatic-cationic peptide reconstituted in phosphate buffered saline. Body weights of the mice were recorded weekly, and mortality checks were performed daily.
(§2) The aromatic-cationic peptide D-Arg-2′6′-Dmt-Lys-Phe-NH2 (sterile lyophilized powder, reconstituted in phosphate buffered saline) was tested. For the 12-week study, test mice received a single, daily dose of the peptide, subcutaneously at 1 mg/kg. Control mice received a single daily dose of vehicle.
(§3) Histopathology/Histomorphometery: Following the 12 week treatment, mice were euthanized within 48 hours after the last dose by CO2 asphyxiation and the vascular tree was perfused with 5 mL of phosphate buffered saline (pH 7.4). The aorta and aortic sinus were removed for examination. Thoracic aorta were isolated, trimmed of fat, and fixed in formalin for 48-72 hours before analysis. For en face analysis, aortas were laid out and pinned on black matrix for photography, and stained with Sudan IV. Vessels were imaged for surface involvement using a Nikon computerized image analysis system and the percent of the aortic surface area covered by lipid was calculated. Two determinations were done for each image (Quan 1 and Quan 2), and the average was computed. The data were then computed by group and statistically analyzed. Following staining and morphometric analysis, total lipids were extracted from the aortas using the Bligh-Dyer method. WAKO Diagnostics kits (WAKO Diagnostics, Inc., 1600 Bellwood Road Richmond, Va. 23237-1326) were then used to evaluate total cholesterol, free cholesterol, and cholesterol ester. Cholesterol leves were quantitate nad expressed relative to protein levels. Values are expressed as μg lipid per mg protein (see e.g., FIG. 1).

[2] = tested on: Apoprotein E deficient mice; assay: Plasma lipoprotein cholesterol by gel electrophoresis (Spife; HDL-C, LDL-C, VLDL-C); format: in vivo; conditions: for HDL-C / LDL-C / VLDL-C: plasma, Spife (electrophoresis)
Excerpt: as §1, §2
Experimental Protocol/Data Collection. Blood was collected every four weeks (orbital plexis) under isoflurane anesthesia (3%) and blood lipids were determined. Plasma lipid analysis was conducted for both groups at t=0, 4, […], 8, and 12 weeks. Plasma lipid analysis using an autoanalyzer included total cholesterol (TC), triglycerides (Trigs), phospholipids (PL), free cholesterol (FC), and cholesterol ester (CE, by calculation). Gel electrophoresis was used to measure levels of high-density lipoprotein cholesterol (HDL-C), low-density lipoprotein cholesterol (LDL-C), and very low-density lipoprotein cholesterol (VLDL-C).

[3] = tested on: Apoprotein E deficient mice; assay: Total lesion area in aortic root 300 μm across aortic valve (aortic sinus cryosections, lipid staining); format: in vivo; design: Area, total lesion area in aortic root / Area, total lesion area in aortic root, AVE: unit not given here; conditions: 12 weeks
Excerpt: as §1
The aromatic-cationic peptide D-Arg-2′6′-Dmt-Lys-Phe-NH2 (sterile lyophilized powder, reconstituted in phosphate buffered saline) was tested. […]
For the aortic sinus, the heart and approximately 5 mm of the ascending aorta was cut from the remainder of the aorta. […] The sinus was imaged at 5 step levels in the region of interest, i.e., the aortic root, for a total distance of 300 μm and the lipid-staining areas and measured (total cross sectional area) using a Nikon computerized image analysis system. The data were then computed by group and statistically analyzed.

[4] = tested on: Apoprotein E deficient mice; assay: En face analysis of atherosclerotic lesions of the thoracic aorta (Sudan IV, % of aortic surface covered by lipid); format: in vivo; conditions: 12 weeks
Excerpt: as §1, §2, §3

[5] = group average, 1 mg/kg subcutaneously daily
[6] = individual mouse, 1 mg/kg subcutaneously daily, μg lipid per mg protein, listed as Peptide, 1 mg/kg
[7] = treated versus vehicle, listed as aromatic-cationic peptide
[8] = Week 0 (t=0, start of dosing), individual mouse of test group
[9] = Week 0, group average of test group
[10] = at 4, 8 and 12 week time points, versus vehicle
[11] = week 4, individual test mouse (sample #16-30), listed as aromatic-cationic peptide
[12] = week 8, individual test mouse (sample #16-30), listed as aromatic-cationic peptide
[13] = week 12, AVE of 15 test animals
[14] = week 12, individual test mouse (sample #16-30), listed as aromatic-cationic peptide
[15] = individual mouse, 1 mg/kg subcutaneously daily, western diet, 1 mg/kg

D-Arg-2′6′-Dmt-Lys-Phe-NH2
coenzyme Q10 levels in fibroblast cells, in words (Human skin fibroblasts): increased
CE (cholesterol ester), thoracic aorta, AVE [1, 5]: 14.6 µg/mg
FC (free cholesterol), thoracic aorta, AVE [1, 5]: 5.7 µg/mg
TC (total cholesterol), thoracic aorta, AVE [1, 5]: 20.4 µg/mg
CE (cholesterol ester), thoracic aorta [1, 6]: 13.8 μg/mg and 2.7 μg/mg and 30.3 μg/mg and 14.7 μg/mg and 30.7 μg/mg and 14.1 μg/mg and 4.6 μg/mg (2×) and 5.6 μg/mg (2×) and 28.5 μg/mg and 21.3 μg/mg and 18.6 μg/mg and 11.4 μg/mg and 13.0 μg/mg
FC (free cholesterol), thoracic aorta [1, 6]: 7.6 μg/mg (2×) and 4.0 μg/mg and 5.1 μg/mg and 3.0 μg/mg (2×) and 8.1 μg/mg and 2.7 μg/mg and 3.5 μg/mg and 14.6 μg/mg and 6.6 μg/mg and 3.8 μg/mg and 3.6 μg/mg and 3.3 μg/mg and 9.5 μg/mg
TC (total cholesterol), thoracic aorta [1, 6]: 21.4 µg/mg and 6.7 µg/mg and 35.4 µg/mg and 17.7 µg/mg and 38.8 µg/mg and 16.8 µg/mg and 8.1 µg/mg and 20.1 µg/mg and 35.1 µg/mg and 9.4 µg/mg and 24.9 µg/mg and 21.7 µg/mg and 7.9 µg/mg and 19.0 µg/mg and 22.5 µg/mg
cholesterol esters in the thoracic aorta, in words [1, 7]: lower
free cholesterol in the thoracic aorta, in words [1, 7]: lower
total cholesterol in the thoracic aorta, in words [1, 7]: lower
HDL-C, plasma [2, 8]: 19 mg/dL and 34 mg/dL and 32 mg/dL and 37 mg/dL and 35 mg/dL and 21 mg/dL and 38 mg/dL and 41 mg/dL and 6 mg/dL and 31 mg/dL and 26 mg/dL and 39 mg/dL and 22 mg/dL and 29 mg/dL and 8 mg/dL
LDL-C, plasma [2, 8]: 258 mg/dL and 260 mg/dL and 307 mg/dL and 245 mg/dL and 268 mg/dL and 295 mg/dL and 304 mg/dL and 474 mg/dL and 287 mg/dL and 352 mg/dL and 380 mg/dL and 481 mg/dL and 410 mg/dL and 432 mg/dL and 773 mg/dL
VLDL-C, plasma [2, 8]: 25 mg/dL (2×) and 23 mg/dL and 37 mg/dL and 20 mg/dL (2×) and 19 mg/dL and 27 mg/dL and 36 mg/dL and 15 mg/dL and 26 mg/dL and 31 mg/dL and 24 mg/dL and 28 mg/dL and 29 mg/dL
HDL-C, plasma, AVE [2, 9]: 28 mg/dL
LDL-C, plasma, AVE [2, 9]: 368 mg/dL
VLDL-C, plasma, AVE [2, 9]: 26 mg/dL
plasma LDL-C, in words [2, 10]: reduces
plasma VLDL-C, in words [2, 10]: reduces
HDL-C ([2]; week 4, AVE of 15 test animals): 25 mg/dL
LDL-C ([2]; week 4, AVE of 15 test animals): 940 mg/dL
VLDL-C ([2]; week 4, AVE of 15 test animals): 33 mg/dL
HDL-C [2, 11]: 18 mg/dL and 20 mg/dL (3×) and 0 mg/dL and 13 mg/dL and 7 mg/dL and 23 mg/dL and 32 mg/dL (3×) and 15 mg/dL and 45 mg/dL and 44 mg/dL and 49 mg/dL
LDL-C [2, 11]: 745 mg/dL and 866 mg/dL and 918 mg/dL and 1120 mg/dL and 982 mg/dL and 648 mg/dL and 893 mg/dL and 975 mg/dL and 770 mg/dL and 766 mg/dL and 966 mg/dL and 1147 mg/dL and 874 mg/dL and 1171 mg/dL and 1254 mg/dL
VLDL-C [2, 11]: 35 mg/dL (2×) and 37 mg/dL (2×) and 19 mg/dL and 44 mg/dL (2×) and 18 mg/dL and 23 mg/dL and 39 mg/dL and 41 mg/dL and 28 mg/dL and 31 mg/dL and 30 mg/dL and 32 mg/dL
HDL-C ([2]; week 8, AVE of 15 test animals): 32 mg/dL
LDL-C ([2]; week 8, AVE of 15 test animals): 1166 mg/dL
VLDL-C ([2]; week 8, AVE of 15 test animals): 84 mg/dL
HDL-C [2, 12]: 42 mg/dL and 34 mg/dL and 27 mg/dL and 33 mg/dL and 19 mg/dL (2×) and 8 mg/dL and 45 mg/dL and 16 mg/dL and 32 mg/dL and 41 mg/dL (2×) and 25 mg/dL and 43 mg/dL and 57 mg/dL
LDL-C [2, 12]: 1119 mg/dL and 897 mg/dL and 1392 mg/dL and 1071 mg/dL and 1415 mg/dL and 901 mg/dL and 875 mg/dL and 1378 mg/dL and 922 mg/dL and 856 mg/dL and 1317 mg/dL and 1320 mg/dL and 1025 mg/dL and 1382 mg/dL and 1621 mg/dL
VLDL-C [2, 12]: 101 mg/dL and 73 mg/dL and 86 mg/dL and 79 mg/dL (2×) and 112 mg/dL and 34 mg/dL and 88 mg/dL and 69 mg/dL and 59 mg/dL and 93 mg/dL and 74 mg/dL and 80 mg/dL and 109 mg/dL and 119 mg/dL
HDL-C [2, 13]: 21 mg/dL
LDL-C [2, 13]: 939 mg/dL
VLDL-C [2, 13]: 44 mg/dL
HDL-C [2, 14]: 38 mg/dL and 20 mg/dL (2×) and 10 mg/dL and 41 mg/dL and 21 mg/dL and 5 mg/dL and 31 mg/dL (2×) and 2 mg/dL (2×) and 40 mg/dL and 28 mg/dL and 1 mg/dL and 23 mg/dL
LDL-C [2, 14]: 821 mg/dL and 485 mg/dL and 854 mg/dL and 852 mg/dL and 1328 mg/dL and 693 mg/dL and 611 mg/dL and 692 mg/dL and 962 mg/dL and 896 mg/dL and 1275 mg/dL and 1218 mg/dL and 505 mg/dL and 1203 mg/dL and 1688 mg/dL
VLDL-C [2, 14]: 39 mg/dL and 35 mg/dL and 21 mg/dL (2×) and 43 mg/dL and 71 mg/dL and 32 mg/dL and 33 mg/dL and 26 mg/dL and 63 mg/dL and 76 mg/dL and 36 mg/dL and 30 mg/dL and 83 mg/dL and 46 mg/dL
Area, total lesion area in aortic root, AVE ([3]; group average, 300 μm across aortic valve, 1 mg/kg subcutaneously daily): 282.72
total (mean) lesion area in aortic root, in words [3, 7]: reduces; also recorded: lower
Ave (average % of the surface of the aortas showing lesions) ([4]; group average of 15 test mice, 1 mg/kg subcutaneously daily): 5.328%
Ave. % of Lesion ([4]; individual mouse, average of Quan 1 and Quan 2, 1 mg/kg subcutaneously daily, 1 mg/kg): 2.615% and 0.892% and 9.027% and 3.019% and 7.009% and 4.833% and 1.996% and 1.205% and 9.948% and 2.763% and 6.814% and 4.734% and 0.834% and 11.239% and 12.990%
Quan 1 (first determination of % of the aortic surface covered by lipid) [4, 15]: 2.562% and 0.914% and 8.769% and 2.832% and 7.137% and 5.198% and 2.128% and 1.388% and 10.000% and 2.990% and 7.091% and 4.700% and 0.775% and 11.589% and 13.857%
Quan 2 (second determination of % of the aortic surface covered by lipid) [4, 15]: 2.667% and 0.870% and 9.284% and 3.205% and 6.881% and 4.468% and 1.863% and 1.021% and 9.895% and 2.536% and 6.536% and 4.768% and 0.892% and 10.888% and 12.122%
atherosclerotic lesions in the aorta (% lesion area), in words [4, 7]: reduces; also recorded: lower
